According to ChEMBL document CHEMBL4004803, “Syntheses and antibacterial activity of soluble 9-bromo substituted indolizinoquinoline-5,12-dione derivatives” (Eur J Med Chem, 2017):
Converted amounts (≈) assume the structure as drawn.

Assays:
Staphylococcus aureus [1] = assay: Antibacterial activity against methicillin-resistant Staphylococcus aureus 122045 clinical isolate after 20 to 24 hrs by two-fold microdilution method; format: functional
Staphylococcus aureus [2] = assay: Antibacterial activity against methicillin-resistant Staphylococcus aureus 112106 clinical isolate after 20 to 24 hrs by two-fold microdilution method; format: functional
Staphylococcus aureus [3] = assay: Antibacterial activity against methicillin-resistant Staphylococcus aureus 1024010 clinical isolate after 20 to 24 hrs by two-fold microdilution method; format: functional
Staphylococcus aureus [4] = assay: Antibacterial activity against methicillin-resistant Staphylococcus aureus 109244 clinical isolate after 20 to 24 hrs by two-fold microdilution method; format: functional
Staphylococcus aureus [5] = assay: Antibacterial activity against methicillin-resistant Staphylococcus aureus 1111047-1 clinical isolate after 20 to 24 hrs by two-fold microdilution method; format: functional
Staphylococcus aureus [6] = assay: Antibacterial activity against methicillin-resistant Staphylococcus aureus GLH14 clinical isolate after 20 to 24 hrs by two-fold microdilution method; format: functional
Staphylococcus aureus [7] = assay: Antibacterial activity against methicillin-resistant Staphylococcus aureus 110910-2 clinical isolate after 20 to 24 hrs by two-fold microdilution method; format: functional
Staphylococcus aureus [8] = assay: Antibacterial activity against methicillin-resistant Staphylococcus aureus 1212057-1 clinical isolate after 20 to 24 hrs by two-fold microdilution method; format: functional
Staphylococcus aureus [9] = assay: Antibacterial activity against methicillin-resistant Staphylococcus aureus 109016 clinical isolate after 20 to 24 hrs by two-fold microdilution method; format: functional
Staphylococcus aureus [10] = assay: Antibacterial activity against methicillin-resistant Staphylococcus aureus 503025 clinical isolate after 20 to 24 hrs by two-fold microdilution method; format: functional
Staphylococcus aureus [11] = assay: Antibacterial activity against methicillin-resistant Staphylococcus aureus 1024004-2 clinical isolate after 20 to 24 hrs by two-fold microdilution method; format: functional
Staphylococcus aureus [12] = assay: Antibacterial activity against methicillin-resistant Staphylococcus aureus 1012029 clinical isolate after 20 to 24 hrs by two-fold microdilution method; format: functional
Staphylococcus aureus [13] = assay: Antibacterial activity against methicillin-resistant Staphylococcus aureus 19950 clinical isolate after 20 to 24 hrs by two-fold microdilution method; format: functional
Staphylococcus aureus [14] = assay: Antibacterial activity against methicillin-resistant Staphylococcus aureus 130031 clinical isolate after 20 to 24 hrs by two-fold microdilution method; format: functional
Staphylococcus aureus [15] = assay: Antibacterial activity against methicillin-resistant Staphylococcus aureus 1101016 clinical isolate after 20 to 24 hrs by two-fold microdilution method; format: functional
Staphylococcus aureus [16] = assay: Antibacterial activity against methicillin-resistant Staphylococcus aureus 121026 clinical isolate after 20 to 24 hrs by two-fold microdilution method; format: functional
[17] = system: Staphylococcus epidermidis; assay: Antibacterial activity against Staphylococcus epidermidis ATCC 12228 after 20 to 24 hrs by two-fold microdilution method; format: functional
Streptococcus pyogenes = assay: Antibacterial activity against Streptococcus pyogenes ATCC 19615 after 20 to 24 hrs by two-fold microdilution method; format: functional
[18] = Solubility of the compound in water at 25 degC measured after shaking for 4 hrs by UV method; format: physicochemical; settings: buffer, 4 h
Staphylococcus aureus [19] = assay: Antibacterial activity against methicillin-resistant Staphylococcus aureus 125025 clinical isolate after 20 to 24 hrs by two-fold microdilution method; format: functional
Staphylococcus aureus [20] = assay: Antibacterial activity against methicillin-resistant Staphylococcus aureus 1128040 clinical isolate after 20 to 24 hrs by two-fold microdilution method; format: functional
Staphylococcus aureus [21] = assay: Antibacterial activity against methicillin-resistant Staphylococcus aureus 121969 clinical isolate after 20 to 24 hrs by two-fold microdilution method; format: functional
Staphylococcus aureus [22] = assay: Antibacterial activity against methicillin-resistant Staphylococcus aureus 3250299 clinical isolate after 20 to 24 hrs by two-fold microdilution method; format: functional
Staphylococcus aureus [23] = assay: Antibacterial activity against methicillin-resistant Staphylococcus aureus 519028 clinical isolate after 20 to 24 hrs by two-fold microdilution method; format: functional
Staphylococcus aureus [24] = assay: Antibacterial activity against methicillin-resistant Staphylococcus aureus 316038 clinical isolate after 20 to 24 hrs by two-fold microdilution method; format: functional
Staphylococcus aureus [25] = assay: Antibacterial activity against methicillin-resistant Staphylococcus aureus 919205 clinical isolate after 20 to 24 hrs by two-fold microdilution method; format: functional
Staphylococcus aureus [26] = assay: Antibacterial activity against methicillin-resistant Staphylococcus aureus 1103006 clinical isolate after 20 to 24 hrs by two-fold microdilution method; format: functional
Staphylococcus aureus [27] = assay: Antibacterial activity against methicillin-resistant Staphylococcus aureus 215073 clinical isolate after 20 to 24 hrs by two-fold microdilution method; format: functional
Staphylococcus aureus [28] = assay: Antibacterial activity against methicillin-resistant Staphylococcus aureus 1029025 clinical isolate after 20 to 24 hrs by two-fold microdilution method; format: functional
Staphylococcus aureus [29] = assay: Antibacterial activity against methicillin-resistant Staphylococcus aureus 1108204 clinical isolate after 20 to 24 hrs by two-fold microdilution method; format: functional
Staphylococcus aureus [30] = assay: Antibacterial activity against methicillin-resistant Staphylococcus aureus 502025 clinical isolate after 20 to 24 hrs by two-fold microdilution method; format: functional
Staphylococcus aureus [31] = assay: Antibacterial activity against methicillin-resistant Staphylococcus aureus 110328-1 clinical isolate after 20 to 24 hrs by two-fold microdilution method; format: functional
Staphylococcus aureus [32] = assay: Antibacterial activity against methicillin-resistant Staphylococcus aureus 12308 clinical isolate after 20 to 24 hrs by two-fold microdilution method; format: functional
Staphylococcus aureus [33] = assay: Antibacterial activity against methicillin-resistant Staphylococcus aureus 1106003 clinical isolate after 20 to 24 hrs by two-fold microdilution method; format: functional
Staphylococcus aureus [34] = assay: Antibacterial activity against methicillin-resistant Staphylococcus aureus 1214023 clinical isolate after 20 to 24 hrs by two-fold microdilution method; format: functional
Staphylococcus aureus [35] = assay: Antibacterial activity against methicillin-resistant Staphylococcus aureus 305026 clinical isolate after 20 to 24 hrs by two-fold microdilution method; format: functional
Staphylococcus aureus [36] = assay: Antibacterial activity against methicillin-resistant Staphylococcus aureus 1216052 clinical isolate after 20 to 24 hrs by two-fold microdilution method; format: functional
Staphylococcus aureus [37] = assay: Antibacterial activity against methicillin-resistant Staphylococcus aureus 316031 clinical isolate after 20 to 24 hrs by two-fold microdilution method; format: functional
Staphylococcus aureus [38] = assay: Antibacterial activity against methicillin-resistant Staphylococcus aureus 831024 clinical isolate after 20 to 24 hrs by two-fold microdilution method; format: functional
Staphylococcus aureus [39] = assay: Antibacterial activity against methicillin-resistant Staphylococcus aureus 1023043 clinical isolate after 20 to 24 hrs by two-fold microdilution method; format: functional
Staphylococcus aureus [40] = assay: Antibacterial activity against methicillin-resistant Staphylococcus aureus GLH15 clinical isolate after 20 to 24 hrs by two-fold microdilution method; format: functional
Staphylococcus aureus [41] = assay: Antibacterial activity against methicillin-resistant Staphylococcus aureus 1211026 clinical isolate after 20 to 24 hrs by two-fold microdilution method; format: functional
Staphylococcus aureus [42] = assay: Antibacterial activity against methicillin-resistant Staphylococcus aureus 518036 clinical isolate after 20 to 24 hrs by two-fold microdilution method; format: functional
Staphylococcus aureus [43] = assay: Antibacterial activity against methicillin-resistant Staphylococcus aureus 122710-2 clinical isolate after 20 to 24 hrs by two-fold microdilution method; format: functional
Staphylococcus aureus [44] = assay: Antibacterial activity against methicillin-resistant Staphylococcus aureus 214026 clinical isolate after 20 to 24 hrs by two-fold microdilution method; format: functional
Staphylococcus aureus [45] = assay: Antibacterial activity against methicillin-resistant Staphylococcus aureus 110325 clinical isolate after 20 to 24 hrs by two-fold microdilution method; format: functional
Staphylococcus aureus [46] = assay: Antibacterial activity against methicillin-resistant Staphylococcus aureus 20339 clinical isolate after 20 to 24 hrs by two-fold microdilution method; format: functional

Compound `O=C1c2cccnc2C(=O)c2c1c(C(=O)OCCCCCN1CCOCC1)c1ccc(Br)cn21` has an MIC (Staphylococcus aureus [1]) of 0.063 mg/L (≈ 0.12 µM), an MIC (Staphylococcus aureus [2]) of 0.031 mg/L (≈ 0.0589 µM) and an MIC (Staphylococcus aureus [3]) of 0.031 mg/L (≈ 0.0589 µM). The MIC (Staphylococcus aureus [4]) was 0.031 mg/L (≈ 0.0589 µM), the MIC (Staphylococcus aureus [5]) was 0.063 mg/L (≈ 0.12 µM) and the MIC (Staphylococcus aureus [6]) was 0.031 mg/L (≈ 0.0589 µM). It also gave an MIC (Staphylococcus aureus [7]) of no more than 0.0078 mg/L, an MIC (Staphylococcus aureus [8]) of no more than 0.0078 mg/L and an MIC (Staphylococcus aureus [9]) of no more than 0.0078 mg/L. It also gave an MIC (Staphylococcus aureus [10]) of 0.031 mg/L (≈ 0.0589 µM), an MIC (Staphylococcus aureus [11]) of 0.125 mg/L (≈ 0.237 µM) and an MIC (Staphylococcus aureus [12]) of no more than 0.0078 mg/L. For the same compound, the MIC (Staphylococcus aureus [13]) was 0.031 mg/L (≈ 0.0589 µM), the MIC (Staphylococcus aureus [14]) was 0.063 mg/L (≈ 0.12 µM) and the MIC (Staphylococcus aureus [15]) was 0.031 mg/L (≈ 0.0589 µM). It also gave an MIC (Staphylococcus aureus [16]) of no more than 0.0078 mg/L, an MIC [17] of no more than 0.0078 mg/L and an MIC (Streptococcus pyogenes) of 8 mg/L (≈ 15.2 µM). For the same compound, the solubility [18] was “Insoluble”, the MIC (Staphylococcus aureus [19]) was no more than 0.0078 mg/L and the MIC (Staphylococcus aureus [20]) was no more than 0.0078 mg/L. It also gave an MIC (Staphylococcus aureus [21]) of 0.063 mg/L (≈ 0.12 µM), an MIC (Staphylococcus aureus [22]) of 0.031 mg/L (≈ 0.0589 µM) and an MIC (Staphylococcus aureus [23]) of no more than 0.0078 mg/L. For the same compound, the MIC (Staphylococcus aureus [24]) was 0.031 mg/L (≈ 0.0589 µM), the MIC (Staphylococcus aureus [25]) was 0.016 mg/L (≈ 0.0304 µM) and the MIC (Staphylococcus aureus [26]) was 16 mg/L (≈ 30.4 µM). The MIC (Staphylococcus aureus [27]) was no more than 0.0078 mg/L, the MIC (Staphylococcus aureus [28]) was 0.031 mg/L (≈ 0.0589 µM) and the MIC (Staphylococcus aureus [29]) was 0.25 mg/L (≈ 0.475 µM). The MIC (Staphylococcus aureus [30]) was 0.125 mg/L (≈ 0.237 µM), the MIC (Staphylococcus aureus [31]) was 0.031 mg/L (≈ 0.0589 µM) and the MIC (Staphylococcus aureus [32]) was no more than 0.0078 mg/L. The MIC (Staphylococcus aureus [33]) was 16 mg/L (≈ 30.4 µM), the MIC (Staphylococcus aureus [34]) was 0.125 mg/L (≈ 0.237 µM) and the MIC (Staphylococcus aureus [35]) was 0.063 mg/L (≈ 0.12 µM). It also gave an MIC (Staphylococcus aureus [36]) of 16 mg/L (≈ 30.4 µM), an MIC (Staphylococcus aureus [37]) of 0.031 mg/L (≈ 0.0589 µM) and an MIC (Staphylococcus aureus [38]) of 0.063 mg/L (≈ 0.12 µM). It also gave an MIC (Staphylococcus aureus [39]) of 0.031 mg/L (≈ 0.0589 µM), an MIC (Staphylococcus aureus [40]) of 0.031 mg/L (≈ 0.0589 µM) and an MIC (Staphylococcus aureus [41]) of no more than 0.0078 mg/L. The MIC (Staphylococcus aureus [42]) was 0.063 mg/L (≈ 0.12 µM), the MIC (Staphylococcus aureus [43]) was no more than 0.0078 mg/L and the MIC (Staphylococcus aureus [44]) was 0.063 mg/L (≈ 0.12 µM). For the same compound, the MIC (Staphylococcus aureus [45]) was no more than 0.0078 mg/L and the MIC (Staphylococcus aureus [46]) was 0.063 mg/L (≈ 0.12 µM).
